Measured values reported in ChEMBL document CHEMBL4425161, “1α,2α-Epoxy-3β-hydroxy oleanolic acid derivatives regulation of the metabolism, haemolysis and β-lactamase gene expression in vitro and their structure-microbicidal activity relationship” (2016).
Activity calls are given as the source filed them.

Tests used:
Acinetobacter baumannii = assay: Antibacterial activity against Acinetobacter baumannii ATCC BAA-1710D assessed as bacterial growth inhibition after 8 hrs by turbidimetric plate reader method; assay type: functional
Klebsiella pneumoniae [1] = assay: Antibacterial activity against Klebsiella pneumoniae ATCC BAA-1705 assessed as bacterial growth inhibition at 50 umol/L after 8 hrs by turbidimetric plate reader method; assay type: functional, organism-based
Klebsiella pneumoniae [2] = assay: Downregulation of ldhD gene expression in Klebsiella pneumoniae ATCC BAA-1705 at 50 umol/L after 8 hrs by semi-quantitative RT-PCR; assay type: functional, organism-based
Klebsiella pneumoniae [3] = assay: Upregulation of IMP gene expression in Klebsiella pneumoniae ATCC BAA-1705 at 50 umol/L after 8 hrs by real time RT-PCR; assay type: functional, organism-based
Klebsiella pneumoniae [4] = assay: Upregulation of VEB gene expression in Klebsiella pneumoniae ATCC BAA-1705 at 50 umol/L after 8 hrs by semi-quantitative RT-PCR; assay type: functional, organism-based
Klebsiella pneumoniae [5] = assay: Upregulation of GES gene expression in Klebsiella pneumoniae ATCC BAA-1705 at 50 umol/L after 8 hrs by semi-quantitative RT-PCR; assay type: functional, organism-based
Escherichia coli [6] = assay: Antibacterial activity against Escherichia coli ATCC 25922 assessed as bacterial growth inhibition after 8 hrs by turbidimetric plate reader method; assay type: functional
Klebsiella pneumoniae [7] = assay: Antibacterial activity against Klebsiella pneumoniae ATCC BAA-1705 assessed as bacterial growth inhibition after 8 hrs by turbidimetric plate reader method; assay type: functional; conditions: for MBC: ATCC BAA-1705, 8 h
Klebsiella pneumoniae [8] = assay: Upregulation of VEB gene expression in Klebsiella pneumoniae ATCC BAA-1705 at 50 umol/L after 8 hrs by real time RT-PCR; assay type: functional, organism-based
Klebsiella pneumoniae [9] = assay: Upregulation of PER-2 gene expression in Klebsiella pneumoniae ATCC BAA-1705 at 50 umol/L after 8 hrs by real time RT-PCR; assay type: functional, organism-based
Klebsiella pneumoniae [10] = assay: Downregulation of ldhD gene expression in Klebsiella pneumoniae ATCC BAA-1705 at 50 umol/L after 8 hrs by real time RT-PCR; assay type: functional, organism-based
Klebsiella pneumoniae [11] = assay: Upregulation of GES gene expression in Klebsiella pneumoniae ATCC BAA-1705 at 50 umol/L after 8 hrs by real time RT-PCR; assay type: functional, organism-based
Klebsiella pneumoniae [12] = assay: Upregulation of IMP gene expression in Klebsiella pneumoniae ATCC BAA-1705 at 50 umol/L after 8 hrs by semi-quantitative RT-PCR; assay type: functional, organism-based
Klebsiella pneumoniae [13] = assay: Upregulation of PER-2 gene expression in Klebsiella pneumoniae ATCC BAA-1705 at 50 umol/L after 8 hrs by semi-quantitative RT-PCR; assay type: functional, organism-based
Bacillus subtilis [14] = assay: Antibacterial activity against Bacillus subtilis ATCC 6051 assessed as bacterial growth inhibition after 8 hrs by turbidimetric plate reader method; assay type: functional; conditions: for MBC: ATCC 6051, 8 h
Bacillus subtilis [15] = assay: Downregulation of yhdT gene expression in Bacillus subtilis ATCC 6051 at 50 umol/L after 8 hrs by real time RT-PCR; assay type: functional, organism-based
Escherichia coli [16] = assay: Downregulation of tsh gene expression in Escherichia coli ATCC 25922 at 50 umol/L after 8 hrs by semi-quantitative RT-PCR; assay type: functional, organism-based
Escherichia coli [17] = assay: Upregulation of acrA gene expression in Escherichia coli ATCC 25922 at 50 umol/L after 8 hrs by real time RT-PCR relative to gapA; assay type: functional, organism-based
Escherichia coli [18] = assay: Upregulation of cysB gene expression in Escherichia coli ATCC 25922 at 50 umol/L after 8 hrs by real time RT-PCR; assay type: functional, organism-based
Escherichia coli [19] = assay: Downregulation of iroD gene expression in Escherichia coli ATCC 25922 at 50 umol/L after 8 hrs by semi-quantitative RT-PCR; assay type: functional, organism-based
Escherichia coli [20] = assay: Downregulation of iroD gene expression in Escherichia coli ATCC 25922 at 50 umol/L after 8 hrs by real time RT-PCR; assay type: functional, organism-based
Bacillus subtilis [21] = assay: Downregulation of yqhC gene expression in Bacillus subtilis ATCC 6051 at 50 umol/L after 8 hrs by real time RT-PCR; assay type: functional, organism-based
Bacillus subtilis [22] = assay: Downregulation of yqhB gene expression in Bacillus subtilis ATCC 6051 at 50 umol/L after 8 hrs by semi-quantitative RT-PCR; assay type: functional, organism-based
Escherichia coli [23] = assay: Upregulation of cysB gene expression in Escherichia coli ATCC 25922 at 50 umol/L after 8 hrs by semi-quantitative RT-PCR; assay type: functional, organism-based
Bacillus subtilis [24] = assay: Downregulation of yhdT gene expression in Bacillus subtilis ATCC 6051 at 50 umol/L after 8 hrs by semi-quantitative RT-PCR; assay type: functional, organism-based
Bacillus subtilis [25] = assay: Downregulation of yqhB gene expression in Bacillus subtilis ATCC 6051 at 50 umol/L after 8 hrs by real time RT-PCR; assay type: functional, organism-based
Escherichia coli [26] = assay: Antibacterial activity against Escherichia coli ATCC 25922 assessed as bacterial growth inhibition at 50 umol/L after 8 hrs by turbidimetric plate reader method; assay type: functional, organism-based
Escherichia coli [27] = assay: Downregulation of tsh gene expression in Escherichia coli ATCC 25922 at 50 umol/L after 8 hrs by real time RT-PCR; assay type: functional, organism-based
Escherichia coli [28] = assay: Upregulation of acrA gene expression in Escherichia coli ATCC 25922 at 50 umol/L after 8 hrs by semi-quantitative RT-PCR; assay type: functional, organism-based
Bacillus subtilis [29] = assay: Downregulation of yqhC gene expression in Bacillus subtilis ATCC 6051 at 50 umol/L after 8 hrs by semi-quantitative RT-PCR; assay type: functional, organism-based
Bacillus subtilis [30] = assay: Antibacterial activity against Bacillus subtilis ATCC 6051 assessed as bacterial growth inhibition at 50 umol/L after 8 hrs by turbidimetric plate reader method; assay type: functional, organism-based

CCOC(=O)[C@]12CCC(C)(C)C[C@H]1C1=CC[C@@H]3[C@@]4(C)[C@H]5O[C@H]5[C@H](O)C(C)(C)[C@@H]4CC[C@@]3(C)[C@]1(C)CC2
1.8 µM: MBC (Klebsiella pneumoniae [7])
inactive: Activity (Klebsiella pneumoniae [5]) | Activity (Klebsiella pneumoniae [11])
active: growth inhibition (GI) (Acinetobacter baumannii) Dose-dependent effect | growth inhibition (GI) (Klebsiella pneumoniae [1]) | Activity (Klebsiella pneumoniae [2]) | Activity (Klebsiella pneumoniae [3]) | Activity (Klebsiella pneumoniae [4]) | growth inhibition (GI) (Escherichia coli [6]) Dose-dependent effect | growth inhibition (GI) (Klebsiella pneumoniae [7]) Dose-dependent effect | Activity (Klebsiella pneumoniae [8]) | Activity (Klebsiella pneumoniae [9]) | Activity (Klebsiella pneumoniae [10]) | Activity (Klebsiella pneumoniae [12]) | Activity (Klebsiella pneumoniae [13]) | growth inhibition (GI) (Bacillus subtilis [14]) Dose-dependent effect

CN[C@@H]1[C@H](O[C@H]2[C@H](O[C@H]3[C@H](O)[C@@H](O)[C@H](N=C(N)N)[C@@H](O)[C@@H]3N=C(N)N)O[C@@H](C)[C@]2(O)C=O)O[C@@H](CO)[C@H](O)[C@H]1O [STREPTOMYCIN]
2.1 µM: MBC (Bacillus subtilis [14])
1.3 µM: MBC (Klebsiella pneumoniae [7])

CC1(C)CC[C@]2(C(=O)OCc3ccccc3C#N)CC[C@]3(C)C(=CC[C@@H]4[C@@]5(C)[C@H]6O[C@H]6[C@H](O)C(C)(C)[C@@H]5CC[C@]43C)[C@@H]2C1
active: Activity (Bacillus subtilis [15]) | Activity (Escherichia coli [16]) | growth inhibition (GI) (Acinetobacter baumannii) Dose-dependent effect | Activity (Escherichia coli [17]) | Activity (Escherichia coli [18]) | Activity (Escherichia coli [19]) | growth inhibition (GI) (Escherichia coli [6]) Dose-dependent effect | growth inhibition (GI) (Klebsiella pneumoniae [7]) Dose-dependent effect | Activity (Escherichia coli [20]) | Activity (Bacillus subtilis [21]) | Activity (Bacillus subtilis [22]) | Activity (Escherichia coli [23]) | Activity (Bacillus subtilis [24]) | Activity (Bacillus subtilis [25]) | growth inhibition (GI) (Escherichia coli [26]) | Activity (Escherichia coli [27]) | growth inhibition (GI) (Bacillus subtilis [14]) Dose-dependent effect | Activity (Escherichia coli [28]) | Activity (Bacillus subtilis [29]) | growth inhibition (GI) (Bacillus subtilis [30])
5.3 µM: MBC (Escherichia coli [6]; ATCC 25922, 8 h)
2 µM: MBC (Bacillus subtilis [14])

NC[C@H]1O[C@H](O[C@H]2[C@H](O)[C@@H](O[C@H]3O[C@H](CO)[C@@H](O)[C@H](N)[C@H]3O)[C@H](N)C[C@@H]2N)[C@H](O)[C@@H](O)[C@@H]1O [KANAMYCIN]
1.6 µM: MBC (Acinetobacter baumannii)
